{"source": "patent US7427601B2", "about": "“Method for treating tremor” (Schwarz Pharma AG, priority 2004, dated 2008)", "tested_on": "harmaline-induced tremors", "experiment": "Harmaline-induced tremors in rats", "type": "in vivo, Male Sprague-Dawley rats", "settings": "for Intensity of tremors after harmaline administration (score), Mean ± S.E.M.: scale 0 to 4", "experimental": "Male Sprague-Dawley rats (Charles River Laboratories, France) were used. During the acclimatization period, animals were housed 2 per cage, in Makrolon type III cages, in the animal room (temperature: 20±2° C., humidity: minimum 45%, air changes: >12 per hour, light/dark cycle of 12 h/12 h [on at 7:00 A.M.]). Animals were allowed a minimum of 5 days period before experiment for acclimatization.\nHarmaline HCl (Sigma) was diluted in saline and injected at 20 mg/kg, i.p. The reference compound, propanolol was injected i.p. at 20 mg/kg, 30 min before harmaline administration. SPM 927 was given i.p. at 3, 10 and 30 mg/kg, 30 min before harmaline administration.\nThe following parameters were assessed by an observer blind to the treatment of the animals. • Intensity: from 0 to 4 (0: no tremor, 1: mild tremor, 2: moderate intermittent tremor, 3: moderate persistent tremor, 4: pronounced severe tremor). Intensity will be scored every 30 min and for a total period of 120 min after harmaline administration. • Latency of onset • Total duration of tremor (max observation time: 120 min) • % rat displaying tremor"}
{"smiles": "CC(C)NCC(O)COc1cccc2ccccc12", "note": "(stereo not shown) [Propranolol, reference compound]", "values": [{"measurement": "Intensity of tremors after harmaline administration (score), Mean ± S.E.M.", "setting": "20 mg/kg i.p. 30 min before harmaline (20 mg/kg i.p.), +30 min", "value": "1.6 ± 0.2", "unit": "score"}, {"measurement": "Intensity of tremors after harmaline administration (score), Mean ± S.E.M.", "setting": "20 mg/kg i.p. 30 min before harmaline (20 mg/kg i.p.), +60 min", "value": "2.3 ± 0.3", "unit": "score"}, {"measurement": "Intensity of tremors after harmaline administration (score), Mean ± S.E.M.", "setting": "20 mg/kg i.p. 30 min before harmaline (20 mg/kg i.p.), +90 min", "value": "1.6 ± 0.3", "unit": "score"}, {"measurement": "Intensity of tremors after harmaline administration (score), Mean ± S.E.M.", "setting": "20 mg/kg i.p. 30 min before harmaline (20 mg/kg i.p.), +120 min", "value": "1.4 ± 0.3", "unit": "score"}, {"measurement": "intensity of tremors (in words)", "setting": "20 mg/kg, each time-point of observation", "value": "reduced the intensity of tremors in a statistically significant manner"}]}
{"smiles": "COC[C@@H](NC(C)=O)C(=O)NCc1ccccc1", "note": "[SPM 927, (R)-2-acetamide-N-benzyl-3-methoxypropionamide]", "values": [{"measurement": "Intensity of tremors after harmaline administration (score), Mean ± S.E.M.", "setting": "3 mg/kg i.p. 30 min before harmaline (20 mg/kg i.p.), +30 min", "value": "2.0 ± 0.4", "unit": "score"}, {"measurement": "Intensity of tremors after harmaline administration (score), Mean ± S.E.M.", "setting": "3 mg/kg i.p. 30 min before harmaline (20 mg/kg i.p.), +60 min", "value": "2.0 ± 0.3", "unit": "score"}, {"measurement": "Intensity of tremors after harmaline administration (score), Mean ± S.E.M.", "setting": "3 mg/kg i.p. 30 min before harmaline (20 mg/kg i.p.), +90 min", "value": "2.1 ± 0.4", "unit": "score"}, {"measurement": "Intensity of tremors after harmaline administration (score), Mean ± S.E.M.", "setting": "3 mg/kg i.p. 30 min before harmaline (20 mg/kg i.p.), +120 min", "value": "1.8 ± 0.4", "unit": "score"}, {"measurement": "Intensity of tremors after harmaline administration (score), Mean ± S.E.M.", "setting": "10 mg/kg i.p. 30 min before harmaline (20 mg/kg i.p.), +30 min", "value": "2.0 ± 0.2", "unit": "score"}, {"measurement": "Intensity of tremors after harmaline administration (score), Mean ± S.E.M.", "setting": "10 mg/kg i.p. 30 min before harmaline (20 mg/kg i.p.), +60 min", "value": "1.1 ± 0.3", "unit": "score"}, {"measurement": "Intensity of tremors after harmaline administration (score), Mean ± S.E.M.", "setting": "10 mg/kg i.p. 30 min before harmaline (20 mg/kg i.p.), +90 min", "value": "2.2 ± 0.4", "unit": "score"}, {"measurement": "Intensity of tremors after harmaline administration (score), Mean ± S.E.M.", "setting": "10 mg/kg i.p. 30 min before harmaline (20 mg/kg i.p.), +120 min", "value": "1.3 ± 0.3", "unit": "score"}, {"measurement": "Intensity of tremors after harmaline administration (score), Mean ± S.E.M.", "setting": "30 mg/kg i.p. 30 min before harmaline (20 mg/kg i.p.), +30 min", "value": "0.9 ± 0.4", "unit": "score"}, {"measurement": "Intensity of tremors after harmaline administration (score), Mean ± S.E.M.", "setting": "30 mg/kg i.p. 30 min before harmaline (20 mg/kg i.p.), +60 min", "value": "1.1 ± 0.3", "unit": "score"}, {"measurement": "Intensity of tremors after harmaline administration (score), Mean ± S.E.M.", "setting": "30 mg/kg i.p. 30 min before harmaline (20 mg/kg i.p.), +90 min", "value": "1.4 ± 0.3", "unit": "score"}, {"measurement": "Intensity of tremors after harmaline administration (score), Mean ± S.E.M.", "setting": "30 mg/kg i.p. 30 min before harmaline (20 mg/kg i.p.), +120 min", "value": "1.2 ± 0.2", "unit": "score"}, {"measurement": "intensity of harmaline-induced tremors (in words)", "setting": "given at 3, 10 and 30 mg/kg", "value": "reduced the intensity of harmaline-induced tremors in a dose dependent manner"}, {"measurement": "maximal efficacy on tremor intensity compared with propranolol (in words)", "setting": "highest dose tested (30 mg/kg) versus propranolol 20 mg/kg", "value": "higher than that of the positive reference compound propranolol"}, {"measurement": "intensity of harmaline-induced tremor (in words)", "setting": "rats, summary statement", "value": "reduced"}, {"measurement": "latency of tremor onset following harmaline injection (in words)", "setting": "rats, summary statement", "value": "markedly increased"}, {"measurement": "total duration of harmaline-induced tremor (in words)", "setting": "rats, summary statement", "value": "reduced"}]}
